Measurements taken from patent publication US9315534B2, “Radiologic agents for monitoring alzheimer's disease progression and Evaluating a Response to Therapy and processes for the preparation of such agents” (BOARD OF REGENTS OF THE UNIVERSITY OF NEBRASKA, priority 2007, dated 2016).

Experiments:
[1] = molecular target: T1, BChE (Mus musculus, UniProt Q03311)
Protocol: Biodistribution studies were also conducted on 3, another BChE-binding derivative, in AD mouse and in normal controls. This study of 3 was conducted in >12-months old AD mice and matching control mice. All mice received IV 10 μCi of 3. Mice were killed 48 hours later. Tissues were collected and their radioactive content determined in a γ counter. One-half of each brain was fixed. The radioactivity in the other half was counted in a γ counter.

[2] = molecular target: T1, BChE; settings: IV 0.5 mCi, 48 hours
Protocol: FIG. 7 provides images of microautoradiography of brain sections of AD mouse treated with IV dose of 0.5 mCi 3. Mouse was killed 48 hours after the administration of 3. Counterstained H&E; 10×.
FIG. 8 provides a microautoradiography of brain sections of the matching control mouse also treated with IV doses of 0.5 mCi 3. Mouse was killed 48 hours after the administration of 3. Counterstained H&E; 10×.
FIG. 9 provides an image of a section of brain from control mouse treated with 3 48 hours before necropsy. 100×; H&E.
FIG. 10 provides images of brain sections from AD mouse 48 hours after IV dose of 0.5 mCi 3. […] FIG. 10D: Cross-section of a blood vessel containing red blood cells surrounded by silver grains corresponding to circulating 3.
FIG. 8 is the corresponding section of a brain from a matched control mouse treated in the same manner. […] Imperfections in focus are because brain sections and silver grains are in different planes, tissue section vs. emulsion.

[3] = molecular target: T1, BChE; settings: for activity in head of AD mouse, planar image: 1 hour after tail vein IV 0.5 mCi
Protocol: Two sets of preliminary biodistribution studies were conducted: (1) in normal athymic mice to determine general biodistribution and the brain uptake; and (2) in at least ˜7-14 months old APPswe mice (strain B6C3-Tg(APPswe,PSEN1dE9)85 Dbo/J; abbreviated as AD mice in the text below). JAX® GEMM® Strain wildtype mice from the colony were used as the control. B6C3-Tg(APPswe,PSEN1dE9) 85 Dbo/J is a double transgenic mice expressing chimeric mouse/human amyloid precursor protein(Mo/Hu APP695swe) and a mutant human presenilin 1(PS1-dE9) both directed to CNS neurons. Both mutations are associated with the early onset AD. Aβ plaques are produced in these mice in hippocampus and cortex by 9 months of age with the occasional deposits found in mice as young as 6 months of age (Jankowsky et al. (2004) Hum. Mol. Genet., 13:159-70; Garcia-Alloza et al. (2006) Neurobiol. Dis., 24:516-524). Planar imaging was done using a pinhole gamma camera. […] In both images mice are positioned with the dorsal surface of the mouse facing the pinhole collimator. […] There were 6 mice per each time point.

[4] = molecular target: AChE (Bos taurus, UniProt P23795); settings: SDS-PAGE autoradiogram
Sequence of AChE (P23795 31-613): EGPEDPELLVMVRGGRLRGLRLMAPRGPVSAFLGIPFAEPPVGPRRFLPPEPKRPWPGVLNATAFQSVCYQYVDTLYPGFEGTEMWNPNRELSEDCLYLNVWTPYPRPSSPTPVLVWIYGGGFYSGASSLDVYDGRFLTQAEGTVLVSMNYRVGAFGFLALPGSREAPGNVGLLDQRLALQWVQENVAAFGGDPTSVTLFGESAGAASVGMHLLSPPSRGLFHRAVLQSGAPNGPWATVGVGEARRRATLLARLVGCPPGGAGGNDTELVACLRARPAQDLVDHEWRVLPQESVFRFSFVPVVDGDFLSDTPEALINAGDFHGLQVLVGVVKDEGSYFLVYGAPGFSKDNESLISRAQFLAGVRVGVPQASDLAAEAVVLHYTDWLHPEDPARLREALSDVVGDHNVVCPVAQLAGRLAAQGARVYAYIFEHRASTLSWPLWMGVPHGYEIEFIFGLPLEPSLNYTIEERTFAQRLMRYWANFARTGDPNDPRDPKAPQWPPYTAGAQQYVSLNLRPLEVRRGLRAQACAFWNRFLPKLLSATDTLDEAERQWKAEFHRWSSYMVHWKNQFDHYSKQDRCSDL
Protocol: Lanes 1, 2: BChE-containing mouse serum incubated with 2a in (1) PBS+DMSO; (2) PBS+0.1% Triton X100+DMSO. Lanes 3-5: AChE-only containing bovine serum incubated with 2a in (3) DMSO; (4) PBS+DMSO; (5) PBS+0.1% Triton X-100+DMSO.

[5] = Solubility in water, buffers and physiologically appropriate solvents
[6] = Partition coefficient, shake-tube method, 1-octanol and water; format: physicochemical; settings: 1-octanol/water; for Partition coefficient P avg (std dev): 19° C., 125I-labeled pure diastereomers
Excerpt: In order to reach intracerebral targets, drugs developed for diagnosis of the AD must be able to cross two barriers separating the central nervous system (CNS) from the periphery (Hansch et al. (1987) J. Pharm. Sci., 76:663-87.), the blood-brain barrier and the blood-cerebrospinal fluid barrier. Therefore the preliminary evaluation of the new drugs included partition coefficients. CNS agents that are highly lipid soluble with the log octanol-water partition coefficient between 1 and 3 have the equilibration half-times that are proportional to brain solubility (Atkinson et al. (2002) Curr. Med. Chem., 2:229-40; Dutta et al. (1998) Br. J. Anaesth., 81:422-4; Buchwald et al. (1998) Curr. Med. Chem., 5:353-80). Only pure SP and RP diastereomers were used. Ten μCi of each ^125I-labeled compound was added to 3 mL of water, the mixture was vortexed and 1-mL aliquots were transferred into fresh tubes. To each tube 1 mL of 1-octanol was added and the mixtures were vigorously vortexed until a homogenous suspension formed. At this point, the organic and water layers were separated by centrifugation at 19° C. Aliquots of each phase were gently removed and counted in a gamma counter in a triplicate. Typically, each KP was calculated as an average of n≧18.

T1 sequence (Q03311 30-603): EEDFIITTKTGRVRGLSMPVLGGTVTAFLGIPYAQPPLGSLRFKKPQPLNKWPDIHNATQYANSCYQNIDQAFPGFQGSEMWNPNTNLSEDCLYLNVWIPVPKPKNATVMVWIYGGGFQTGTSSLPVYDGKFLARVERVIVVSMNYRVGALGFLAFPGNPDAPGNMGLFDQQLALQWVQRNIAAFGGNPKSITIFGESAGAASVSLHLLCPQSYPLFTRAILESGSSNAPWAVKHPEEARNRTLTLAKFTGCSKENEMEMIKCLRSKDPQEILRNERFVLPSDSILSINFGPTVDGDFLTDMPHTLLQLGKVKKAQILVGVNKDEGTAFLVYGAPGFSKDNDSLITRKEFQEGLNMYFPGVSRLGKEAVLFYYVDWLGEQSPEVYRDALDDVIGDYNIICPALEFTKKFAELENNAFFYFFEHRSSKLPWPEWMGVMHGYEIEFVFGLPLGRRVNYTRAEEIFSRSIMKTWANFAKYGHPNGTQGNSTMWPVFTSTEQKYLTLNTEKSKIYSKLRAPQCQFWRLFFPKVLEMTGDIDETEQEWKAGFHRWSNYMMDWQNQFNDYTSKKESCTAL

O=c1[nH]c(=O)n(C2CC(O)C(COP3(=O)OCc4ccccc4O3)O2)cc1[125I] (mixture of isomers) [Compound 3]
brain uptake AD mice compared to wildtype controls ([1]; 48 hours after IV): ~3 times
brain uptake in AD mice ([1]; >12-months old AD mice, IV 10 μCi, 48 hours): 0.085±0.008 % ID/g
brain uptake in matching wildtype controls ([1]; control mice, IV 10 μCi, 48 hours): 0.030±0.011 % ID/g
clusters of radioactivity in brain of AD mice ([2]; AD mouse): large clusters of radioactivity
clusters of radioactivity in brains of control mice ([2]; control mouse): practically absent

CC(C)(C)c1cc(C(C)(C)C)c2c(c1F)COP(=O)(OCC1OC(n3cc([125I])c(=O)[nH]c3=O)CC1O)O2 (stereo not drawn) [Compound 2a]
activity in head of AD mouse, planar image [3]: accumulation of 2a in the head of the AD mouse
percent injected dose per gram brain, 2a versus 2b ([3]; AD mice, IV, all time points, 6 mice per time point): significantly higher
binding to bovine serum (AChE, no BChE) [4]: complete absence
solubility in buffers and other physiologically appropriate solvents [5]: low

CC(C)(C)c1cc(C(C)(C)C)c2c(c1F)COP(=O)(OCC1OC(n3cc([125I])c(=O)[nH]c3=O)CC1O)O2 (stereo not drawn) [Compound 2b]
activity in head of AD mouse, planar image [3]: only the background level of activity

O=c1[nH]c(=O)n(C2CC(O)C(COP3(=O)OCc4ccccc4O3)O2)cc1[125I] (stereo not drawn) [Compound 3a]
log P [6]: 0.623
Partition coefficient P avg (std dev) [6]: 4.19 (0.12)

O=c1[nH]c(=O)n(C2CC(O)C(COP3(=O)OCc4ccccc4O3)O2)cc1[125I] (stereo not drawn) [Compound 3b]
log P [6]: 0.652
Partition coefficient P avg (std dev) [6]: 4.49 (0.25)

Cc1cccc2c1OP(=O)(OCC1OC(n3cc([125I])c(=O)[nH]c3=O)CC1O)OC2 (stereo not drawn) [Compound 4a]
log P [6]: 0.857
Partition coefficient P avg (std dev) [6]: 7.19 (0.37)

Cc1cccc2c1OP(=O)(OCC1OC(n3cc([125I])c(=O)[nH]c3=O)CC1O)OC2 (stereo not drawn) [Compound 4b]
log P [6]: 0.846
Partition coefficient P avg (std dev) [6]: 7.02 (0.34)
